According to patent US9161990B2, “Hydrochloride salts of a glycopeptide-cephalosporin antbiotic compond” (THERAVANCE BIOPHARMA ANTIBIOTICS IP, LLC, priority 2013, dated 2015):
Counter-ions that a name gives are not always drawn.

Experiments:
[1] = Storage stability of lyophilized hydrochloride salts (purity by HPLC); assay type: physicochemical
Method: (§1) All solvents were HPLC grade and were purchased from Honeywell Burdick & Jackson (Muskegon, Mich. 49442). Phosphoric acid (85% w/w) and sodium dihydrogen phosphate were HPLC grade and were purchased from Fluka (Sigma-Aldrich, St. Louis, Mo. 63103). All reagents were used without further purification.
(§2) Test samples were filtered through a 0.2 μm polyvinylidene fluoride (PVDF) filter before analysis and the first 1 mL was discarded.
(§3) Test sample purity was determined based on the integrated peak area (area-under-the-curve or AUC) for the compound as a percentage of all integrated peaks. The concentration (assay value) of the compound in a test sample was determined by comparison with a reference standard.
(§4) One rack was stored protected from light in a drawer at room temperature and the other rack was stored in a refrigerator at 2 to 8° C. A representative vial of each type of stability sample was analyzed by HPLC after storage for 1, 3, 6 and 12 months to determine purity.

[2] = Storage stability of hydrochloride salts in a lyophilized composition containing sucrose and glycine (purity by HPLC); assay type: physicochemical; settings: Trihydrochloride; for Purity (HPLC area percent) / Δ (change in percent purity from time = 0): composition containing sucrose and glycine; for decrease in purity: formulated with sucrose and glycine, listed as trihydrochloride salt
Method: as §1, §2, §3, §4

[3] = refrigerated temperature (2 to 8° C.), 1 month, Trihydrochloride
[4] = refrigerated temperature (2 to 8° C.), 3 months, Trihydrochloride
[5] = refrigerated temperature (2 to 8° C.), 6 months, Trihydrochloride
[6] = refrigerated temperature (2 to 8° C.), 12 months, Trihydrochloride
[7] = room temperature, 1 month, Trihydrochloride
[8] = room temperature, 3 months, Trihydrochloride
[9] = room temperature, 6 months, Trihydrochloride
[10] = room temperature, 12 months, Trihydrochloride
[11] = refrigerated temperature (2 to 8° C.), 1 month
[12] = refrigerated temperature (2 to 8° C.), 6 months
[13] = refrigerated temperature (2 to 8° C.), 12 months

SMILES: CN[C@H](CC(C)C)C(=O)NC1C(=O)N[C@@H](CC(N)=O)C(=O)N[C@H]2C(=O)N[C@H]3C(=O)N[C@H](C(=O)N[C@H](C(=O)NCCCO/N=C(\C(=O)N[C@@H]4C(=O)N5C(C(=O)[O-])=C(C[n+]6ccccc6)CS[C@H]45)c4nc(N)sc4Cl)c4cc(O)cc(O)c4-c4cc3ccc4O)[C@H](O)c3ccc(c(Cl)c3)Oc3cc2cc(c3O[C@@H]2O[C@H](CO)[C@@H](O)[C@H](O)[C@H]2O[C@H]2C[C@](C)(N)[C@H](O)[C@H](C)O2)Oc2ccc(cc2Cl)[C@H]1O (stereo partly drawn) [Trihydrochloride, 26-[[[3-[[(Z)-[1-(2-Amino-5-chloro-4-thiazolyl)-2-[[(6R,7R)-2-carboxy-8-oxo-3-(pyridiniomethyl)-5-thia-1-azabicyclo[4.2.0]oct-2-en-7-yl]amino]-2-oxoethylidene]amino]oxy]propyl]amino]carbonyl]-26-decarboxyvancomycin Trihydrochloride, reference compound]
- Purity (HPLC area percent) [1, 3]: 84.0%
- Δ (change in percent purity from time = 0) [1, 3]: −0.5%
- Purity (HPLC area percent) [1, 4]: 80.7%
- Δ (change in percent purity from time = 0) [1, 4]: −3.8%
- Purity (HPLC area percent) [1, 5]: 79.4%
- Δ (change in percent purity from time = 0) [1, 5]: −5.1%
- Purity (HPLC area percent) [1, 6]: 76.0%
- Δ (change in percent purity from time = 0) [1, 6]: −8.6%
- Purity (HPLC area percent) ([1]; refrigerated temperature (2 to 8° C.), time 0 months, Trihydrochloride): 84.5%
- Purity (HPLC area percent) [1, 7]: 74.8%
- Δ (change in percent purity from time = 0) [1, 7]: −9.7%
- Purity (HPLC area percent) [1, 8]: 69.5%
- Δ (change in percent purity from time = 0) [1, 8]: −15.0%
- Purity (HPLC area percent) [1, 9]: 56.5%
- Δ (change in percent purity from time = 0) [1, 9]: −28.0%
- Purity (HPLC area percent) [1, 10]: 50.4%
- Δ (change in percent purity from time = 0) [1, 10]: −34.2%
- Purity (HPLC area percent) ([1]; room temperature, time 0 months, Trihydrochloride): 84.5%
- decrease in purity ([1]; stored at 2 to 8° C. for 12 months, listed as trihydrochloride salt, Trihydrochloride): 8.6%
- decomposition on storage ([1]; stored at room temperature or at refrigerated temperature (about 2 to about 8° C.)): decompose significantly
- Purity (HPLC area percent) [2, 11]: 91.5%
- Δ (change in percent purity from time = 0) [2, 11]: 0.2%
- Δ (change in percent purity from time = 0) ([2]; refrigerated temperature (2 to 8° C.), 3 months): −0.5%
- Purity (HPLC area percent) [2, 12]: 92.8%
- Δ (change in percent purity from time = 0) [2, 12]: 1.5%
- Purity (HPLC area percent) [2, 13]: 90.1%
- Δ (change in percent purity from time = 0) [2, 13]: −1.2%
- Purity (HPLC area percent) ([2]; refrigerated temperature (2 to 8° C.), time 0 months): 91.3%
- Purity (HPLC area percent) ([2]; room temperature, 1 month): 89.2%
- Δ (change in percent purity from time = 0) ([2]; room temperature, 1 month): −2.1%
- Purity (HPLC area percent) ([2]; room temperature, 3 months): 84.4%
- Δ (change in percent purity from time = 0) ([2]; room temperature, 3 months): −6.9%
- Purity (HPLC area percent) ([2]; room temperature, 6 months): 82.5%
- Δ (change in percent purity from time = 0) ([2]; room temperature, 6 months): −8.8%
- Purity (HPLC area percent) ([2]; room temperature, 12 months): 65.0%
- Δ (change in percent purity from time = 0) ([2]; room temperature, 12 months): −26.3%
- Purity (HPLC area percent) ([2]; room temperature, time 0 months): 91.3%
- decrease in purity ([2]; stored at 2 to 8° C. for 12 months): 1.2%
- decrease in purity ([2]; stored at room temperature for 12 months): 26.3%
